From patent US7074575B2, “Use of interleukin-19 to treat ovarian cancer” (ZymoGenetics, Inc., priority 2002, dated 2006) come the findings set out here.

This assay relates to Ovcar3 (ATCC #HTB-161) cells. Briefly: Ovcar3 cytotoxicity assay (MTT readout). It counts as cell-based. As to conditions: 72 hours. On the procedure: We tested IL-19 in an Ovcar3 (ATCC #HTB-161) cytoxicity assay to measure the ability of IL-19 to prevent cells from growing during normal growth conditions. We used MTT reagent (Promega, Madison, USA) as our detection and readout for this cell inhibition assay. Procedure of a cytoxicity assay: Ovcar3 Cytotoxicity Assay
Ovcar3 (ATCC #HTB-161) cells were plated at a density of 5000 cells/100 ul/well in clear 96 well TC plates. Cells were plated in complete growth media consisting of RPMI containing 20% FBS, 0.01 mg/ml insulin, 2% HEPES, 1% Sodium Pyruvate and 1% Glutamax. Cells were incubated overnight at 37° C. in a 5% CO2 incubator.
The following day, media was removed from the cells and replaced with 100 ul/well of appropriately diluted samples. All sample dilutions were done in complete growth media. Samples were incubated on the cells for 72 hours.
After incubation, an MTT assay was done on the cells using the manufacturer's protocol (Promega #PAG4100). Dye solution was incubated on the cells 4 hours, followed by a 1 hour incubation with the stop solution. Absorbance was then read on the Victor II and percent inhibition was calculated from the wells containing complete growth media only.

Consider `CC1=C(/C=C/C(C)=C/C=C/C(C)=C/C(=O)O)C(C)(C)CCC1` [Retnoic Acid], for which the inhibition of growth is 29% (3 uM), 34% (10 uM), 43% (31 uM) and 83% (100 uM).

B1: IL-19: interleukin-19 polypeptide, amino acid sequence SEQ ID NO:2; mature secreted form amino acid 23 (His) to 177 (Ala) (protein, listed as Homo sapiens)
chain: MKLQCVSLWLLGTILILCSVDNHGLRRCLISTDMHHIEESFQEIKRAIQAKDTFPNVTILSTLETLQIIKPLDVCCVTKNLLAFYVDRVFKDHQEPNPKILRKISSIANSFLYMQKTLRQCQEQRQCHCRQEATNATRVIHDNYDQLEVHAAAIKSLGELDVFLAWINKNHEVMSSA
As for B1, the inhibition of growth is, setting by setting: (1 ng/ml) 4%; (10 ng/ml) 9%; (100 ng/ml) 23%; (1000 ng/ml) 52%.

Broadly, the inhibition of growth is the drop in the measured response relative to a control, in per cent. High values mean a response far below the control, low ones a response near the control.
